# Source: PMC12583094, “A novel antioxidant peptide from black soybean [Glycine max (L.) Merr.] with verified MPO interaction and multi-scale antioxidant activity” (Frontiers in Nutrition, 2025)
# Like-named read-outs stand apart in the source and are kept apart here. No end group written: not given here.
# Columns and labels:
# [1] = peptide from cherry seeds, molecular dynamics simulation; cited from earlier work
# From the text: The root mean square deviation (RMSD) value reflects the deviation of the complex from its initial conformation over the course of the simulation. RMSD fluctuations are directly indicative of conformational stability, with deviations below 0.5 nm generally considered acceptable ([34]). […] In this surface, blue to white regions indicate low free energy value, whereas yellow to red regions reflect higher energy states. […] For the MPO–[…] complex, the energy p ...
# [2] = peptide from cherry seeds; cited from earlier work
# [3] = ABTS radical scavenging assay; type: biochemical; conditions: ABTS solution diluted 20-fold with anhydrous ethanol, 30 min dark, 734 nm, mean ± SD, n = 3
# Description: For the ABTS assay, ABTS radical solution was prepared by mixing Reagent A and Reagent B (from the assay kit) at a 1:1 volume ratio, followed by incubation in the dark for 12 h. The resulting ABTS solution was diluted 20-fold with anhydrous ethanol before use. The blank, control, and sample solutions were prepared in the same manner as in the DPPH assay, followed by 30 min of dark incubation. Absorbance was measured at 734 nm. The radical scavenging activity was calculated using the formula reported by Thanyaporn Aursuwanna et al. ([22]).
# [4] = DPPH radical scavenging assay; type: biochemical; conditions: 50 μL + 450 μL of 0.1 mM DPPH in anhydrous ethanol, dark, room temperature, 30 min, 517 nm, mean ± SD, n = 3
# Description: Prior to the assay, the microplate reader was preheated for 1 h. The peptide samples were dissolved in sterile water to prepare a concentration gradient of 0.1, 1, 5, and 10 mg/mL. For the DPPH assay, 50 μL of sterile water and 450 μL of DPPH solution (0.1 mM in anhydrous ethanol) were added to the blank tube. For the control tube, 50 μL of peptide solution and 450 μL of anhydrous ethanol were mixed. For the sample tubes, 50 μL of peptide solution and 450 μL of DPPH solution were combined. All mixtures were incubated in the dark at room temperature for 30 min. Absorbance was measured at 517 nm using a UV–visible spectrophotometer.
# [5] = cited from earlier work; for ABTS radical scavenging rate at 1 mg/mL / DPPH radical scavenging rate at 1 mg/mL: peptide from Glycine max hydrolysate
# From the text: (§1) Similarly, Zhang et al. identified two antioxidant peptides, VVFVDRL and […], from Glycine max hydrolysate, both of which contain N-terminal valine residues. […] This enhanced activity was attributed to the presence of repeating amino acids within the peptide sequences, a feature that has also been associated with stronger bioactivity in antioxidant peptid ...
# MPO = conditions: cited from earlier work
# From the text: as §1
# [6] = cited from earlier work; for antioxidant activity and free radical scavenging: peptides from black soybean processing by-products; for antioxidant bioactivity: peptides from sturgeon ovarian protein hydrolysates; for radical scavenging activity: peptides from Thunnus albacares protein hydrolysates
# From the text: Black soybean [Glycine max (L.) Merr.], belonging to the family Fabaceae, subfamily Faboideae, genus Glycine, and subgenus Soja, is a traditional legume crop characterized by its black seed coat. It has been cultivated in China for thousands of years, and China remains the largest producer and consumer of soybeans globally, with substantial production and consumption of black soybean in particular ([8]).
# HaCaT cells [7] = experiment: CCK8 cell viability, concentration screening in HaCaT cells; type: cell-based, human; conditions: 24 h, CCK8, 450 nm, vs control, n = 3
# Description: (§2) HaCaT cell recovery, culture, and subculture were performed with reference to the method described by Yusha Zi et al., with some modifications ([23]). For recovery, cryopreserved HaCaT cells were retrieved from liquid nitrogen storage and quickly thawed in a 37 °C water bath with gentle shaking. Just before complete thawing, the tube was removed from the water bath, and the cell suspension was immediately transferred into a 15 mL centrifuge tube containing 9 mL of pre-warmed complete medium. The complete medium consisted of DMEM supplemented with 10% fetal bovine serum (FBS) and 1% penicillin–streptomycin (P/S). Cells were centrifuged at 800 rpm for 5 min at 4 °C. After discarding the supernatant, the cell pellet was resuspended in 5 mL of fresh complete medium and transferred to a culture flask equipped with a ventilated cap. Cells were incubated in a humidified incubator at 37 °C with 5% CO₂ and 95% humidity.
# For subculturing, when cell confluence reached approximately 80%, the medium was discarded, and the cells were gently rinsed three times with 2 mL of PBS. Then, 1 mL of 0.25% trypsin solution was added, and the flask was incubated at 37 °C for about 1 min. Once the cells became round and partially detached (as observed under a microscope), 3 mL of complete medium was added to terminate the digestion. The cell suspension was gently pipetted to disperse the cells and transferred to a 15 mL centrifuge tube. After centrifugation at 800 rpm for 5 min at 4 °C, the supernatant was discarded. The pellet was resuspended in fresh medium and seeded into new culture flasks at a ratio of 1:3, followed by incubation under the same culture conditions.
# After digestion and resuspension, HaCaT cells were seeded into a 96-well plate at a concentration of 1 × 10^^4 cells/ml, with 100 μL of complete culture medium added to each well. Three wells with no cells were treated with an equal volume of complete culture medium as the blank group. The cells were incubated for 24 h to allow attachment. For the experiment, the control and blank groups were replaced with an equal volume of fresh medium, while the treatment groups were treated with a concentration gradient of 100, 200, 500, 1,000, and 1,500 μg/mL H2O2 and peptide samples. The H2O2 group was incubated for 1 h, while the peptide sample group was incubated for 24 h. After incubation, the original medium was discarded, and 100 μL of CCK8 working solution (prepared from 90% DMEM + 10% CCK8 reagent) was added to each well. The blank group, which contained no cells, was used as the reference. The plate was incubated for an appropriate period, and the absorbance at 450 nm was measured using a microplate reader. Cell viability was calculated using the following formula:
# Cell viability(%)=100%×(ODsample−ODblank)/(ODcontrol−ODblank).
# HaCaT cells [8] = type: cell-based, human; conditions: 24 h, 1000 μg/mL
# Description: as §2, with “humidity. For subculturing, when cell confluence reached approximately 80%, the medium was discarded, and the cells were gently rinsed three times with 2 mL of PBS. […] The plate was incubated for an appropriate period, and the absorbance at 450 nm was measured using a microplate reader. Cell viability was calculated using the following formula: Cell viability(%)=100%×(ODsample−ODblank)/(ODcontrol−ODblank). […] The absorbance was measured and cell viability was calculated under the same conditions.” for “humidity.”
# [9] = peptide from foxtail millet prolamin
substance,measurement,setting,value
"LYSPH [antioxidant peptide LYSPH, derived from cherry seeds]",number of hydrogen bonds,[1],3 ± 1 hydrogen bonds
same,docking binding energy,[2],-7.9 kcal/mol
Glutathione [GSH],ABTS radical scavenging rate at 0.1 mg/mL,[3]; 0.1 mg/mL,24.52 ± 4.01%
same,ABTS radical scavenging rate at 1 mg/mL,[3]; 1 mg/mL,40.76 ± 3.01%
same,ABTS radical scavenging rate at 5 mg/mL,[3]; 5 mg/mL,60.28 ± 3.58%
same,ABTS radical scavenging rate at 10 mg/mL,[3]; 10 mg/mL,82.92 ± 1.27%
same,DPPH radical scavenging rate at 0.1 mg/mL,[4]; 0.1 mg/mL peptide solution,27.72 ± 2.86%
same,DPPH radical scavenging rate at 1 mg/mL,[4]; 1 mg/mL peptide solution,54.36 ± 3.61%
same,DPPH radical scavenging rate at 5 mg/mL,[4]; 5 mg/mL peptide solution,69.01 ± 4.68%
same,DPPH radical scavenging rate at 10 mg/mL,[4]; 10 mg/mL peptide solution,84.87 ± 1.39%
VLIPMP [antioxidant peptide from foxtail millet prolamin],ABTS IC₅₀,[5]; [9],2.33 mg/mL
same,DPPH IC₅₀,[5]; [9],4.45 mg/mL
same,number of hydrogen bonds formed with MPO,MPO,higher than that observed for VPNHFNAP
same,stability of the VLIPMP–MPO complex,MPO; molecular dynamics simulations,confirmed the stability of the VLIPMP–MPO complex
same,binding free energy calculated by MM-PBSA,MPO; with MPO,-40.83 ± 7.64 kcal/mol
LVPK [peptide from black soybean processing by-products],antioxidant activity and free radical scavenging,[6],exhibited antioxidant activity and free radical scavenging capacity
FEGPPFKF [antioxidant peptide from sturgeon ovarian protein hydrolysates],antioxidant bioactivity,[6],demonstrated antioxidant bioactivity
ACGSDGK [antioxidant peptide from Thunnus albacares protein hydrolysates],radical scavenging activity,[6],significant radical scavenging activity
VPNHFNAP,"effect on HaCaT cell viability, 1500 μg/mL",HaCaT cells [7]; peptide 1500 μg/mL,a marked decrease
same,"effect on HaCaT cell viability, 100 to 1,000 μg/mL","HaCaT cells [7]; peptide 100 to 1,000 μg/mL",did not cause significant changes in cell viability
same,"HaCaT cell viability, peptide pretreatment then H2O2",HaCaT cells [8],64.38 ± 4.22%
FDWDRL [antioxidant peptide from sturgeon ovarian protein hydrolysates],antioxidant bioactivity,[6],demonstrated antioxidant bioactivity
VIYVVDLR [antioxidant peptide from Glycine max hydrolysate],ABTS radical scavenging rate at 1 mg/mL,[5],~50%
same,DPPH radical scavenging rate at 1 mg/mL,[5],approximately 40%
VVFVDRL [antioxidant peptide from Glycine max hydrolysate],ABTS radical scavenging rate at 1 mg/mL,[5],~50%
same,DPPH radical scavenging rate at 1 mg/mL,[5],approximately 40%
KFCSGHA [antioxidant peptide from Thunnus albacares protein hydrolysates],radical scavenging activity,[6],significant radical scavenging activity
IVPK [peptide from black soybean processing by-products],antioxidant activity and free radical scavenging,[6],exhibited antioxidant activity and free radical scavenging capacity
